This is an account of results in patent publication US20240216288A1, “LIPID NANOPARTICLES CONTAINING POLYNUCLEOTIDES ENCODING PROPIONYL-COA CARBOXYLASE ALPHA AND BETA SUBUNITS AND USES THEREOF” (ModernaTX, Inc., priority 2021, published 2024).

This data set in a line: Residual parent lipid in mouse liver at 24 h (hEPO study). It counts as in vivo. The following applies: CD-1 mice.

For `CCCCCC(CCCCC)CCOC(=O)CCCCCCCN(CCO)CCCCCCCC(=O)OCCC(CCCCC)CCCCC` [compound 25], the “Parent Lipid Remaining (nmol/g liver tissue) at 24 h” value was 0.1 0.04 nmol/g liver tissue.
